Experimental data from ChEMBL document CHEMBL1159167, “Synthesis and biological activity of 5-[(2,5-dihydroxybenzyl)amino]salicylic acid analogs as inhibitors of EGF receptor-associated protein tyrosine kinase” (Bioorg Med Chem Lett, 1997).
pIC50: −log10 of the molar value.

Target: Epidermal growth factor receptor (Homo sapiens, UniProt P00533)
Test: Displacement of [gamma-32P]-ATP from Epidermal growth factor receptor in A431 cell-free extracts
Set-up: species or system A-431

Sequence of Epidermal growth factor receptor (P00533 whole entry): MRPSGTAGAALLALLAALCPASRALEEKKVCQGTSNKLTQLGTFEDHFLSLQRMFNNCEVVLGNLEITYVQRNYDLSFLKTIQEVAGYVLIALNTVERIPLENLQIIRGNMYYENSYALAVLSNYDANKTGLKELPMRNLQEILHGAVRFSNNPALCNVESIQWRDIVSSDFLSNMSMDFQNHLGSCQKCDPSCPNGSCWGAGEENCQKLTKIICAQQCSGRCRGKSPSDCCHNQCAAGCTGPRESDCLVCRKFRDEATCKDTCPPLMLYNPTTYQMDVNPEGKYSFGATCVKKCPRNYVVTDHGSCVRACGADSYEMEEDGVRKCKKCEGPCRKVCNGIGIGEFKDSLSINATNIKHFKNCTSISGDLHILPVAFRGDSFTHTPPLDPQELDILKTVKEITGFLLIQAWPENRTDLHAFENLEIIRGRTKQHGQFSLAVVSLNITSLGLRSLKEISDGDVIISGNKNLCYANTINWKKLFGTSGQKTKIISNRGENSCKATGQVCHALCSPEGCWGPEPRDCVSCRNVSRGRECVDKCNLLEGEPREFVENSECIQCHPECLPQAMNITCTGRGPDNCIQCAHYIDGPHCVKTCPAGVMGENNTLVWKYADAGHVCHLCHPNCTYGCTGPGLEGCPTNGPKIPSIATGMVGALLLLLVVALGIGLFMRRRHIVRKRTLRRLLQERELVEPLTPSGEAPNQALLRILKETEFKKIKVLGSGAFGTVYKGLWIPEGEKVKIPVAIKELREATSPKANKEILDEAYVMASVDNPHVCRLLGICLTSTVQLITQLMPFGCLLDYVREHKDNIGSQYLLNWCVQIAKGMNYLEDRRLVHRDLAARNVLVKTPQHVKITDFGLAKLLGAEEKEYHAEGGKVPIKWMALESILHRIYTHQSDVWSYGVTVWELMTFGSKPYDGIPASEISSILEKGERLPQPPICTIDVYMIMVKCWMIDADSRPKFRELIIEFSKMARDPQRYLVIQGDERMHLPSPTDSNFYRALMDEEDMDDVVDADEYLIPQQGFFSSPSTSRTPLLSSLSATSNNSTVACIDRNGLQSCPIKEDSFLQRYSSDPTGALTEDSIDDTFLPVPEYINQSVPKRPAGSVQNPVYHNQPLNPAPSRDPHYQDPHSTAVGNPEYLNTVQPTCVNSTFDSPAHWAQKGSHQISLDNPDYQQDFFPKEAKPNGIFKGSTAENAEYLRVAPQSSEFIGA

| Structure (SMILES) | pIC50 |
| --- | --- |
| CCCCCCCCCCCCCCNC(=O)c1cc(NCc2cc(O)ccc2O)ccc1O | 4.57 |
| O=S(=O)(O)c1cc(NCc2cc(O)ccc2O)ccc1O | 4.99 |
| O=[N+]([O-])c1cc(NCc2cc(O)ccc2O)ccc1O | 5.27 |

Continued by rising pIC50, values first:

| pIC50 | Structure (SMILES) |
| --- | --- |
| 4.38 | Oc1ccc(NCc2cc(O)ccc2O)cc1 |
| 5.01 | CNC(=O)c1cc(NCc2cc(O)ccc2O)ccc1O |
| 6.05 | CCCCCCNC(=O)c1cc(NCc2cc(O)ccc2O)ccc1O |
